Data on 8 compounds can be found in PubChem BioAssay (NCI).

Usually GI50 stands for the concentration that inhibits growth by half. For orientation: TGI means the concentration giving total growth inhibition. High values mean lower sensitivity of the cells, low ones greater sensitivity of the cells.

Molecules are shown by their SMILES.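 Five concentrations, 48 hours, 96-well plates. Abbreviation: GI50, concentration required for 50% inhibition of growth. Definition used: TGI = concentration required for complete inhibition of growth.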

Experiment in all cases: DTP human tumour cell line panel, 48 h
Experiment [1] concerns CCRF-CEM leukemia.
Experiment [2] relates to MDA-MB-435.
Experiment [3] deals with 786-0 renal.
Experiment [4] concerns SF-295 CNS.
Experiment [5] has as its system SNB-19 CNS.
The test system of experiment [6] is COLO 205 colon.
Experiment [7] deals with MALME-3M melanoma.
Experiment [8] has as its system SK-MEL-28 melanoma.
In experiment [9] the test system is A498 renal.
Experiment [10] relates to NCI-H522 lung.

On to `O=Cc1c[nH]c2ccc(-c3csc4ccccc34)cc12`, for which the GI50 was 2.64 µM in [1]; 1.24 µM in [2]; 4.26 µM in experiment [3]; 2.64 µM in experiment [4]; 5.98 µM in experiment [5]; 4.46 µM in experiment [6]. In addition, the GI50 in experiment [7] is 4.39 µM; in [8], 5.49 µM; in [9] it was 2.86 µM; in [10], 3.23 µM. The TGI is 10.6 µM in experiment [1]; 3.66 µM in experiment [2]; 41.9 µM in [3]; 13.1 µM in experiment [4]; over 100 µM in [5]; over 100 µM in experiment [6]. Besides, the TGI in experiment [7] is 37.5 µM; in [8], over 100 µM; in [9], 9.44 µM; in experiment [10], over 100 µM.
`Cc1ccc(C2NC(=S)N3C(c4ccc(C)cc4)NC(=S)N23)cc1` (stereo not given): the GI50 is 2.46 µM in [1]; 0.666 µM in experiment [2]; 5.82 µM in experiment [3]; 2.92 µM in experiment [4]; 5.06 µM in [5]; 6.07 µM in [6]. For the same compound, the GI50 in experiment [7] was 12.4 µM; in experiment [8], 11.5 µM; in experiment [9] it was 5.57 µM; in experiment [10], 1.94 µM. Besides, the TGI in experiment [1] stood at 10.2 µM; in experiment [2], 4.14 µM; in [3], 19.9 µM; in experiment [4], 11.8 µM; in [5], 17.7 µM; in [6] it was 18.5 µM. The TGI in experiment [7] worked out at 28.1 µM; in experiment [8], 24.2 µM; in experiment [9] it was 18 µM; in experiment [10], 8.54 µM.
Consider `COc1ccc(/C=C/c2ccnc3ccccc23)cc1`, for which the TGI came to 28.7 µM in [1]; 31.2 µM in experiment [2]; 30.6 µM in experiment [3]; 32.7 µM in [4]; 36.8 µM in [5]; 31.1 µM in [6]. In addition, the TGI in [7] stood at 30.6 µM; in experiment [8], 29.4 µM; in experiment [9] it was 27.9 µM; in experiment [10], 36.6 µM.
As to `O=c1c(-c2ccc3c(c2)OCO3)coc2c(CO)c(O)ccc12`, the GI50 in experiment [1] was 3.44 µM; in experiment [2], 4.78 µM; in experiment [3] it was 1.97 µM; in experiment [4], 2.2 µM; in experiment [5], 2.87 µM; in [6], 20.9 µM. Besides, the GI50 in experiment [7] is 1.57 µM; in experiment [8], 5.91 µM; in experiment [9], 1.76 µM; in [10], 4.55 µM. The TGI in experiment [1] is over 100 µM; in experiment [2], 19.5 µM; in experiment [3], 4.6 µM; in experiment [4], 6.18 µM; in [5], 10.3 µM; in experiment [6], 45.5 µM. Moreover, the TGI turned out to be 3.47 µM in experiment [7], 22.7 µM in [8], 3.95 µM in [9] and 20.8 µM in experiment [10].
For `NS(=O)(=O)c1cccc(-c2cc3ccncc3cc2OCc2ccccc2)c1`, the GI50 is 8.43 µM in [1]; 12.7 µM in experiment [2]; 7.37 µM in [3]; 6.55 µM in experiment [4]; 19.1 µM in experiment [5]; 10.7 µM in experiment [6]. The GI50 was 14.7 µM in experiment [7], 5.85 µM in [8], 2.17 µM in experiment [9] and 13.5 µM in experiment [10]. In addition, the TGI was over 25 µM in experiment [1]; over 25 µM in experiment [2]; over 20.7 µM in experiment [3]; over 17.7 µM in experiment [4]; over 25 µM in [5]; over 25 µM in experiment [6]. The TGI is over 25 µM in [7], over 25 µM in experiment [8], 13 µM in experiment [9] and over 25 µM in experiment [10].
In the case of `O=c1[nH]cc(CO)c(=O)[nH]1`, the GI50 in [1], in [2], in [3], in [4], in experiment [5] and in [6] was over 100 µM each time. Besides, the GI50 in experiment [7], in experiment [8], in experiment [9] and in [10] was over 100 µM in each case. Besides, the TGI in experiment [1], in experiment [2], in [3], in [4], in experiment [5] and in experiment [6] was over 100 µM throughout. For the same compound, the TGI in experiment [7], in [8], in experiment [9] and in [10] was over 100 µM each time.
As for `O=C1c2cccc3cccc(c23)C(=O)N1CC#Cc1ccc2c3c(cccc13)C(=O)N(CCN1CCNCC1)C2=O`, the GI50 is 2.01 µM in [1]; 1.86 µM in [2]; 1.86 µM in [3]; 17.5 µM in [4]; 1.96 µM in [5]; 3.3 µM in [6]. Moreover, the GI50 was 1.84 µM in experiment [7], 1.9 µM in experiment [8], 15.4 µM in experiment [9] and 2.03 µM in experiment [10]. Moreover, the concentration for total growth inhibition (TGI) was determined as 5.06 µM in experiment [1]; 3.47 µM in experiment [2]; 3.53 µM in experiment [3]; 33.8 µM in [4]; 4.18 µM in experiment [5]; 12.4 µM in [6]. In addition, the TGI in [7] was 3.7 µM; in experiment [8] it was 3.55 µM; in experiment [9] it was 31.1 µM; in experiment [10] it was 5.04 µM.
With `CCOC(=O)C1=C(C)NC(C)=C(C(=O)OCC)C1c1cc(Br)c(O)c(OC)c1`, the GI50 in experiment [1] is 3.37 µM; in experiment [2], 1.85 µM; in [3], 4.01 µM; in experiment [4] it was 2.89 µM; in experiment [5] it was 4.25 µM; in [6], 10.3 µM. Also, the GI50 in [7] is 10.6 µM; in experiment [8], 4.32 µM; in experiment [9] it was 2.19 µM; in experiment [10], 4.22 µM. Further, the TGI in experiment [1] came out at 15.7 µM; in experiment [2], 6.2 µM; in experiment [3], 18 µM; in [4], 10.5 µM; in experiment [5], 16.8 µM; in [6] it was 22.9 µM. Also, the TGI turned out to be 32.7 µM in experiment [7], 16.7 µM in experiment [8], 7.13 µM in [9] and 20.1 µM in experiment [10].
